The results in this text go back to ChEMBL document CHEMBL1201862, “PubChem BioAssay data set” (2004).

The target of assay [1] is T1, Corticotropin-releasing factor receptor 2/Corticotropin-releasing factor-binding protein (Homo sapiens, UniProt P24387+Q13324).
T1 sequence (Q13324 whole entry): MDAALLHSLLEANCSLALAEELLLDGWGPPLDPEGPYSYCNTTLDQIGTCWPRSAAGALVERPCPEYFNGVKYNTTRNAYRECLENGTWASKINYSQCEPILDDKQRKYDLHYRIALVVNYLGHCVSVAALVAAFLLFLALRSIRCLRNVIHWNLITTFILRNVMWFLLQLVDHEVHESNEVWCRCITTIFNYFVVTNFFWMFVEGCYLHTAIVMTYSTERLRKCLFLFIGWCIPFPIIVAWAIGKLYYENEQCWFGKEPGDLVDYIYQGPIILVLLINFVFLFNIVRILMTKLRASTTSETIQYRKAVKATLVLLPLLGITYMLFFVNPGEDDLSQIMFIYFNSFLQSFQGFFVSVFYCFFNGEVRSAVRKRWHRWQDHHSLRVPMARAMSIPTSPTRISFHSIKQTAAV
T1 sequence (P24387 whole entry): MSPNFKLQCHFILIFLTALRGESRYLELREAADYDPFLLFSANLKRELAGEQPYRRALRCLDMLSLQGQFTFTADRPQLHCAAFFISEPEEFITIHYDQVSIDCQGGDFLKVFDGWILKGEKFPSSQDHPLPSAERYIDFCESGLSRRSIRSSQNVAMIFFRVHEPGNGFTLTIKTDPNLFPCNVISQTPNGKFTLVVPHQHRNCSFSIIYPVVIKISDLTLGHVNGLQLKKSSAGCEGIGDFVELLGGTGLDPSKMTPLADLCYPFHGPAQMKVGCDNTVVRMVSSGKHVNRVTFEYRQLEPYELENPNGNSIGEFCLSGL
As to the kind of experiment: Dose Response confirmation of uHTS hits for small molecule antagonists of the CRF-binding protein and CRF-R2 receptor complex. It counts as functional. Conditions: read-out: IC50_Mean.

For assay [2], the target named is T1, Corticotropin-releasing factor receptor 2/Corticotropin-releasing factor-binding protein. Briefly: activators of CRF receptor 2 with binding protein – uHTS hits, confirmation (AID 602473). Conditions: read-out: EC50_Mean. In kind it is functional.
The nature of assay [3]: blockers of CRF-binding protein–CRF-R2 complex – cell-based, uHTS hits, 384-well, dose response (AID 651639). Conditions: read-out: IC50_Mean. In kind it is functional, Homo sapiens.
Another assay deals with fMet-Leu-Phe receptor (Homo sapiens, UniProt P21462). Briefly: formyl peptide receptor binders – dose response (AID 519). In kind it is functional.
Assay [4] is described as follows: HGIII-sPLA2 enzyme inhibition potency – biochemical, QFRET, IC50, dose response (AID 743457).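 Further: green fluorescence rise as the enzyme cleaves BODIPY PC-A2 in liposomes.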
The target in the next assay is Steroidogenic factor 1 (Homo sapiens, UniProt Q13285). Briefly: Counterscreen for inverse agonists of the liver receptor homolog-1 (LRH-1; NR5A2): Luminescence-based cell-based high throughput dose response assay to identify inverse agonists of the Steroidogenic Factor 1 Nuclear Receptor (SF1; NR5A1). In kind it is functional.
For assay [5], the target named is Nuclear receptor subfamily 5 group A member 2 (Homo sapiens, UniProt O00482). In kind it is functional, cell-based.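 Further: HEK293T cells transfected with LRH-1 and a StAR promoter luciferase reporter; potency for inhibitors that lower LRH-1 driven reporter light.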
Assay [6] in a line: nonselective StAR promoter luciferase inhibitors – cell-based, luminescence, luciferase reporter, counter-screen for LRH-1 inverse agonist project, dose response (AID 651969). In kind it is functional.
Assay [7] in a line: cells. In kind it is functional, cell-based.
Assay [8] in a line: cells. In kind it is functional, cell-based. This is another data set of the same source.
For assay [9], the target named is T2, Trace amine-associated receptor 1 (Homo sapiens, UniProt Q96RJ0).
T2 sequence (Q96RJ0 whole entry): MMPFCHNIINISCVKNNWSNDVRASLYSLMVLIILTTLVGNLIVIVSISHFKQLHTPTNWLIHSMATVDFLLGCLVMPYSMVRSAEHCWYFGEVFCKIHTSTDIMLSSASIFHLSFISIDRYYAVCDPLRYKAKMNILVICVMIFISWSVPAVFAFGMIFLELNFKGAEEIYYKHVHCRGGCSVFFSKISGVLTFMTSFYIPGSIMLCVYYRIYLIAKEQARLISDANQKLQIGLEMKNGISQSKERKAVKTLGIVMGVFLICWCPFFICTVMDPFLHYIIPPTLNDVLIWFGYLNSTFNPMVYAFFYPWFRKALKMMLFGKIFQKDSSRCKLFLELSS
As to the kind of experiment: Fluorescence-based cell-based high throughput dose response assay to identify agonists of the human trace amine associated receptor 1 (TAAR1). It counts as functional.

The target in assay [10] is T2, Trace amine-associated receptor 1. Briefly: Counterscreen for agonists of the human trace amine associated receptor 1 (hTAAR1): Fluorescence-based cell-based high throughput dose response assay to identify hTAAR1 agonist that also desensitize TAAR1 receptor response. In kind it is functional.
In assay [11] the target is Mitogen-activated protein kinase 10 (Homo sapiens, UniProt P53779). Briefly: Dose response biochemical screening assay for inhibitors of c-Jun N-Terminal Kinase 3 (JNK3). [Related pubchem assays: 746 ].
For another assay, the target named is T3, Protein skinhead-1 (Caenorhabditis elegans, UniProt P34707).
T3 sequence (P34707 whole entry): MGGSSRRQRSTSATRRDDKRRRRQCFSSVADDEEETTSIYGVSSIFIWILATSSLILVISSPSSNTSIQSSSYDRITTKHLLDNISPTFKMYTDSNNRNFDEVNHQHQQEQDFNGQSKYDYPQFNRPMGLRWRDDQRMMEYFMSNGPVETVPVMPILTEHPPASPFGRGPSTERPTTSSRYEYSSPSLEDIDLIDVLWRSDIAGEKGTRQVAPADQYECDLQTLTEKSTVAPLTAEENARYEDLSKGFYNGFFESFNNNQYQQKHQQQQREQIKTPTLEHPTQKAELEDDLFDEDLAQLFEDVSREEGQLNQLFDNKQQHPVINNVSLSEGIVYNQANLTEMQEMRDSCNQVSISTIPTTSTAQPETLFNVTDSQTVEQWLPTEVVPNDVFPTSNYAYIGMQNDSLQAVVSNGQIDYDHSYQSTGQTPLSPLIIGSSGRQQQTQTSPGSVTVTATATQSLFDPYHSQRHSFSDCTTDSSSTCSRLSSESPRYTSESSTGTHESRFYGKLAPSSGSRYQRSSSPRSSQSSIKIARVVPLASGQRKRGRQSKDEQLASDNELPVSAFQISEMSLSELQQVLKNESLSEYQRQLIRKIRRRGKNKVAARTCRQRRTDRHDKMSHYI
In kind it is functional.

Assay [12] addresses Fructose-bisphosphate aldolase (Mycobacterium tuberculosis, UniProt P9WQA3). As to the kind of experiment: Fluorescence-based biochemical high throughput dose response assay for inhibitors of the fructose-bisphosphate aldolase (FBA) of M. tuberculosis. In kind it is functional.
Assay [13] has as its target T4, Disintegrin and metalloproteinase domain-containing protein 17 (Homo sapiens, UniProt P78536). As to the kind of experiment: exosite inhibitors of ADAM17, dose response, biochemical (AID 743260).
A short description of assay [14]: potency of ADAM10 substrate cleavage blockers – biochemical, QFRET, dose response (AID 743254).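 Further: ADAM10 enzyme with the DM2 quenched FRET peptide as substrate; EDANS fluorescence gain as the protease cuts the substrate; inhibitor potency against ADAM10 proteolytic activity.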
The target of assay [15] is T4, Disintegrin and metalloproteinase domain-containing protein 17. Briefly: inhibition of ADAM17 substrate cleavage – biochemical, quenched FRET substrate, counter-screen for ADAM10 exosite inhibitor project, dose response (AID 743253).
The nature of assay [16]: inhibition of ADAM10 peptide cleavage – biochemical, FRET peptide substrate, recombinant human ADAM10, selectivity assay for ADAM17 exosite inhibitor project, dose response (AID 743259).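 Further: ADAM10 enzyme cleaving a FRET peptide substrate.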
Assay [17] in a line: OVCAR-3 cell viability loss – plate reader, dry powder samples, PAX8 inhibitor project, dose response (AID 743044). In kind it is functional, cell-based.
The next assay deals with Paired box protein Pax-8 (Homo sapiens, UniProt Q06710). Briefly: PAX8 transcriptional activity inhibition in RMG-I – RMG-I cells, luciferase, cherry-pick, dose response (AID 687027).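 Further: luciferase reporter driven by Pax8 target thyroperoxidase promoter measured by SteadyGlo luminescence.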 It counts as functional, cell-based.
A short description of assay [18]: OVCAR8 cell viability loss – plate reader, dry powder samples, PAX8 project, dose response (AID 743197). In kind it is functional, cell-based. The following applies: OVCAR-8.
Assay [19] is described as follows: general cell-killing toxicity readout – plate reader, dry powder samples, cytotoxicity control for PAX8 inhibitor project, dose response (AID 743021). It counts as functional, cell-based.
The nature of assay [20]: IGROV1 cell killing – plate reader, dry powder samples, PAX8 inhibitor project, dose response (AID 743043). It counts as functional, cell-based. Conditions: IGROV-1.
A short description of assay [21]: cells. Conditions: A549.
Assay [22] in a line: cells. Conditions: HEK293.
Assay [23] can be described thus: Luminescence Cell-Based Dose Confirmation HTS to Identify Activators of 5'UTR Stem-Loop Driven Alpha-Synuclein mRNA Translation in H4 Neuroglioblastoma Cells. [Related pubchem assays: 1829 (Project Summary), 1814 (Primary HTS)]. It counts as functional.
Assay [24] is described as follows: Luminescence Cell-Based Dose Response HTS to Identify Activators of Luciferase Translation or Activity in H4 […] Cells. [Related pubchem assays: 1829 (Project Summary), 1814 (Primary HTS)]. In kind it is functional.
In a further assay the test system is H4. Briefly: Luminescence Cell-Based Dose Response HTS to Identify Activators of 5'UTR Stem-Loop Driven Prion Protein mRNA Translation in H4 Neuroglioblastoma Cells. [Related pubchem assays: 1829 (Project Summary), 1814 (Primary HTS)]. In kind it is functional. Conditions: Homo sapiens.
The nature of assay [25]: T. cruzi growth inhibition in host cells, dose response, cell-based, plate reader, dry powder, set 2 (AID 652275). It counts as functional.

The source made the active and inactive calls.

T4 sequence (P78536 whole entry, the tested form may be a part): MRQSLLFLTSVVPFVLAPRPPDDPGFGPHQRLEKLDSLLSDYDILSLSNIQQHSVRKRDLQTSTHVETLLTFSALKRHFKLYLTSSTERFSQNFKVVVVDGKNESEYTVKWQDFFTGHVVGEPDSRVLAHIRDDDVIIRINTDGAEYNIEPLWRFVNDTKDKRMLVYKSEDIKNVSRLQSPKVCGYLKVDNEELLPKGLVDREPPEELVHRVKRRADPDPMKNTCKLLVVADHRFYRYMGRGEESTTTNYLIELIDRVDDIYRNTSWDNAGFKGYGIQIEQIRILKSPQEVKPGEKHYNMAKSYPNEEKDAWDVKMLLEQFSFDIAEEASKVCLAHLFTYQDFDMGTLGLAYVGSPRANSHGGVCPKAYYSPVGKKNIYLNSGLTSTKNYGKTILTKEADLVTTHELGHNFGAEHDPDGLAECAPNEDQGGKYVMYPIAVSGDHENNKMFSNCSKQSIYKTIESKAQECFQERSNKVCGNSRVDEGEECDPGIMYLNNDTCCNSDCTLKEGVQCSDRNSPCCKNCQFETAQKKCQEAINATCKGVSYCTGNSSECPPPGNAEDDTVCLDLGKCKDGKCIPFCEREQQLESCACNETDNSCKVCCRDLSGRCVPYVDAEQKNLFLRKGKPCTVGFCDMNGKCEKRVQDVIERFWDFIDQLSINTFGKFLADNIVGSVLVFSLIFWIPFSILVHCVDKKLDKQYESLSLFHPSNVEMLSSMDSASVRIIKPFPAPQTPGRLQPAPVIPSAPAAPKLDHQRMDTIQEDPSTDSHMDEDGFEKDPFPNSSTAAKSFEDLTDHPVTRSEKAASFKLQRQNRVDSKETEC
Sequence of Paired box protein Pax-8 (Q06710 whole entry): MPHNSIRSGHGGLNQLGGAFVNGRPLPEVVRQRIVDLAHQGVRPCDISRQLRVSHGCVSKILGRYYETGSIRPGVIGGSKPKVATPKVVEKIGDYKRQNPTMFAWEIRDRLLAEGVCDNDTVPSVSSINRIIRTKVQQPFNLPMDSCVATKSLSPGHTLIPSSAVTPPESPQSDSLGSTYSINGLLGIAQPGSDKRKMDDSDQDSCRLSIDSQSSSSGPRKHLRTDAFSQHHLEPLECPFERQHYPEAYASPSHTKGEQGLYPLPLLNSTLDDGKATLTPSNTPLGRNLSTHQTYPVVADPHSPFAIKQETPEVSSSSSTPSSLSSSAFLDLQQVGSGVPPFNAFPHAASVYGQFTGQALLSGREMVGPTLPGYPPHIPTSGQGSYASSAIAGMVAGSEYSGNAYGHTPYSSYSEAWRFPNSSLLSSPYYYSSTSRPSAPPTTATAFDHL
Sequence of Nuclear receptor subfamily 5 group A member 2 (O00482 whole entry): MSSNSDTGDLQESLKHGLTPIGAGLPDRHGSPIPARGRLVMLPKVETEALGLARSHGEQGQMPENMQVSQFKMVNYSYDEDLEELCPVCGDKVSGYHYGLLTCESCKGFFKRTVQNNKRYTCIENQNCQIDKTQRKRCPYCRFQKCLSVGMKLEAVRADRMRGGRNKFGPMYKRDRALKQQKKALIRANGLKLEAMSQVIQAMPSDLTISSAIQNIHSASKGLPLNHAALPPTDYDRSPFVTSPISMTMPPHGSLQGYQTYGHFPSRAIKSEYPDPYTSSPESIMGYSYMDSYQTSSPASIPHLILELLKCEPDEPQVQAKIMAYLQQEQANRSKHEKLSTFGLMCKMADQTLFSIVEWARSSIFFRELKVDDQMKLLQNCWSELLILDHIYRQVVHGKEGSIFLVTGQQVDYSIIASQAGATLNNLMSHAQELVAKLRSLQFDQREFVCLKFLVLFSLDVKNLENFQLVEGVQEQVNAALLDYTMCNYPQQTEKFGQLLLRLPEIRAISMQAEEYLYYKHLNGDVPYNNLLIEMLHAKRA
Sequence of Fructose-bisphosphate aldolase (P9WQA3 whole entry, the tested form may be a part): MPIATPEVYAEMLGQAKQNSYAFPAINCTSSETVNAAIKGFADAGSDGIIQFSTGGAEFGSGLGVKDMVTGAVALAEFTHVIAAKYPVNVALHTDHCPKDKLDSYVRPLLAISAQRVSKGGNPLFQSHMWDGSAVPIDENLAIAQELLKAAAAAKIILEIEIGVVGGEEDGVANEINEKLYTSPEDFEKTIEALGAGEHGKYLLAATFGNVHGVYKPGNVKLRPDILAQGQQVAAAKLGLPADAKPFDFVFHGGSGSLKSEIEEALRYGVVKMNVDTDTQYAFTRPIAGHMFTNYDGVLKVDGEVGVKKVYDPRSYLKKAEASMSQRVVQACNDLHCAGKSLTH
Sequence of Steroidogenic factor 1 (Q13285 whole entry): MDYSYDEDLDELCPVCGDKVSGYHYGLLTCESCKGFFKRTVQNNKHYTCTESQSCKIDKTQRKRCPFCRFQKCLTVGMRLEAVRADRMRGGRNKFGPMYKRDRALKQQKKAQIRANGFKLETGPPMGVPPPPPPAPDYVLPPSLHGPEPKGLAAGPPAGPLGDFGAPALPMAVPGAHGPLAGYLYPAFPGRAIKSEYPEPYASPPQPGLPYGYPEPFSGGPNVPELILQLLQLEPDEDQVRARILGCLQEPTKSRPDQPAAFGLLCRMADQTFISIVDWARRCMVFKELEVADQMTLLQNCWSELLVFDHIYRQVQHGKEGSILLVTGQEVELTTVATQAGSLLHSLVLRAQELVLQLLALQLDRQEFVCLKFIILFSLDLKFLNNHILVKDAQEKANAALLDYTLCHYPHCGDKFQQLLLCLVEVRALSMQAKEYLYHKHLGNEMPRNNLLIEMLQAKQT
Sequence of Mitogen-activated protein kinase 10 (P53779 whole entry): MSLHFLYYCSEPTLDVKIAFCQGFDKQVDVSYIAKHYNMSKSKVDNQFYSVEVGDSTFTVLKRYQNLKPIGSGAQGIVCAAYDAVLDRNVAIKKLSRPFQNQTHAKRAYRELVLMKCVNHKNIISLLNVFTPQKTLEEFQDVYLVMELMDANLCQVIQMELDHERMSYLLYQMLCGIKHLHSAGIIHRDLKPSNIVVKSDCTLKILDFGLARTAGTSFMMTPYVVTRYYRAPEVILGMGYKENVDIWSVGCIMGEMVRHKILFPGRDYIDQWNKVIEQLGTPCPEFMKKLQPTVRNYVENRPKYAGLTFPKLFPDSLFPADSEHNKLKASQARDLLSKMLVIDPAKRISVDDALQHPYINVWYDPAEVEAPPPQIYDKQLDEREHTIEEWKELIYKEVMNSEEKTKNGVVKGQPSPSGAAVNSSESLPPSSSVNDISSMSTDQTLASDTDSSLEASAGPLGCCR
Sequence of fMet-Leu-Phe receptor (P21462 whole entry): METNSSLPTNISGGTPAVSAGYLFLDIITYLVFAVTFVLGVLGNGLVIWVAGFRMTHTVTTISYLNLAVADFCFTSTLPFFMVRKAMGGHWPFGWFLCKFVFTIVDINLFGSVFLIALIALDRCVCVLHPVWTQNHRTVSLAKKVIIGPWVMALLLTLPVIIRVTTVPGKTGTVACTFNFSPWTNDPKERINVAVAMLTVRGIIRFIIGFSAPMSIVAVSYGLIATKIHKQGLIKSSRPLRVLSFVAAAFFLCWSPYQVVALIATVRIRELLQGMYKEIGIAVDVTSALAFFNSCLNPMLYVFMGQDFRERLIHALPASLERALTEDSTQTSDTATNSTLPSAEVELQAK

Turning to `COc1cccc(CN2C(=O)C(C)N(C(=O)c3ccccc3)c3ccccc32)c1` (stereo unspecified), the values for the IC50 in assay [1] and in assay [3] were 26.9 µM (active) and 9.26 µM (active), respectively. In addition, in [2], the EC50 is > 53 µM (inactive).
As to `COc1ccc(C(=O)C2=C(O)C(=O)N(CCN3CCOCC3)C2c2ccc(C)cc2)cc1` (stereo unspecified), at fMet-Leu-Phe receptor, the Ki was > 66.7 µM (inactive).
On to `Cn1cccc1CC(=O)NN=C(S)Nc1ccccc1Cl`, for which the IC50 in [4] is > 122 µM (inactive).
In the case of `O=C(COc1ccc2c3c(c(=O)oc2c1)CCC3)NCc1ccncc1`, the IC50 (at Steroidogenic factor 1; in [5]; in assay [6]) was 35.9 µM (inactive) each time.
Regarding `CC(=O)c1ccc(NC(=O)Nc2ccccc2)cc1`, the IC50 was 29.8 µM (inactive) in “cells [7]” and > 3.32 µM (active) in assay [10]. Also, the EC50 was > 29.9 µM (inactive) in the assay “cells [8]” and 3.14 µM (active) in [9].
Take `O=C(Nc1ccc(-c2nc3cccnc3s2)cc1)c1ccco1`: the IC50 is > 93.1 µM (not active) in [11], 83.1 µM (inactive) at Protein skinhead-1 and 1.32 µM (active) in assay [12].
In the case of `OCc1ccc2c(c1)c(-c1ccc3c(c1)OCCO3)c(-c1ccccc1)n2-c1ccccc1`, the IC50 in assay [12] is 0.913 µM (active).
In the case of `Cc1cc(Br)ccc1NC(=O)CN1C(=O)C2CC=CCC2C1=O` (stereo unspecified), the IC50 at Steroidogenic factor 1 was 0.105 µM (active); in [5] it was 0.169 µM (active); in assay [6] it was 35.9 µM (inactive).
Take `O=C(CSc1ccc(Cl)cc1Cl)N1CCC(c2nc3ccccc3s2)CC1`: the IC50 in [13] is > 69.5 µM (inactive); in assay [14], 22.1 µM (inactive); in assay [15] it was > 69.5 µM (inactive); in assay [16], 18.8 µM (inactive).
In the case of `O=S(=O)(Nc1cc(Cl)ccc1-n1cncn1)c1ccccc1Cl`, the IC50 in assay [1] was 32.6 µM (active); in assay [3], > 20 µM (inactive). Further, in assay [2], the EC50 was > 53 µM (inactive).
Take `C=CCC[C@@H](Cc1ccc(F)cc1)C(=O)OC[C@@H](NC(=O)[C@H](CC=C)CC(=O)N(CCO)Cc1ccccc1)c1ccccc1`: the IC50 in assay [14] was 27.4 µM (inactive); in assay [15] it was > 69.5 µM (inactive).
Consider `Cc1cc(O)nc(Nc2cccc(F)c2)n1`, for which the IC50 (in “cells [7]”; in assay [10]) was > 29.9 µM (inactive) throughout. The EC50 in the assay “cells [8]” was > 29.9 µM (inactive); in assay [9], 8.54 µM (active).
As for `C[C@H](CO)N1C[C@H](C)[C@H](CN(C)Cc2ccc(C(F)(F)F)cc2)OCCCC[C@H](C)Oc2ccc(NS(=O)(=O)c3ccccc3)cc2C1=O`, the AC50 in assay [17] was 45 µM (active); on Paired box protein Pax-8, 9.01 µM (active); in assay [18], 48.9 µM (active); in assay [19], 55.7 µM (active); in assay [20], 55.8 µM (active).
As to `C[C@@H]1CN([C@@H](C)CO)C(=O)Cc2cc(NC(=O)Nc3ccc4c(c3)OCO4)ccc2O[C@H]1CN(C)CC1CCCCC1`, the AC50 was 37 µM (active) in [17], 9.15 µM (active) at Paired box protein Pax-8 and 58.1 µM (active) in assay [20].
In the case of `COC(=O)c1cc(=O)n(Cc2ccc3c(c2)OCO3)/c(=N/c2ccc(F)c(Cl)c2)s1`, the AC50 in “cells [21]” is 23.3 µM (active); in the assay “cells [22]”, 20 µM (active). Moreover, the EC50 was 10.4 µM (active) in assay [23], > 120 µM (not active) in [24] and > 120 µM (not active) with H4.
Consider `CN(C)C(=O)c1ccc(-c2ccc([C@H]3[C@H](CO)N4CCCCN(Cc5cncnc5)C[C@@H]34)cc2)cc1`, for which the AC50 in assay [25] is 0.472 µM (active).
